These results are taken from patent publication US20230183243A1, “HETEROARYL DERIVATIVES AND PHARMACEUTICAL COMPOSITION COMPRISING SAME AS ACTIVE INGREDIENT” (VORONOI INC., priority 2019, published 2023).

In one experiment the target is LRRK2 (Homo sapiens, UniProt Q5S007). Briefly: LRRK2 enzyme activity, ADP-Glo kinase assay. On the set-up: purchased Invitrogen PR8604B. The format is biochemical. Particulars: purified human LRRK2, ATP 10 μM, 25° C., 2 hours. The procedure: To evaluate the inhibitory activity of the compound according to the present invention against LRRK2 and JNKs, an experiment was performed as follows.
The compound of Example 7 was reacted with a purified human LRRK2 (Invitrogen #PR8604B) enzyme to evaluate an ability of the compound of Example 7 to inhibit the enzyme using a method as described below. A composition of 40 mM Tris-HCl (pH 7.4), 20 mM MgCl2, 0.5 mg/mL BSA, and 50 μM DTT was used as a reaction buffer, and all reactions of test substances were performed in the reaction buffer. The compound was diluted […] from a 10 mM DMSO stock using a serial dilution method, and enzyme activity was measured at final compound concentrations of 50, 10, 2, 0.4, 0.08, 0.016, 0.0032, 0.00064, 0.000128, 0.0000256, 0.00000512, and 0.000001024 μM. In the test, purified ATP (10 μM) and an enzyme substrate (0.2 μg) were reacted with a human LRRK2 (25 ng) enzyme at 25° C. for 2 hours, and the enzyme activity was then determined using an in vitro ADP-Glo™ kinase assay (Promega). An enzyme-activity reaction solution, an ADP-Glo reaction solution, and an enzyme-ability detection solution were reacted at a ratio of 2:2:1 to measure a degree of inhibition of the enzyme activity with luminescence. […]
For orientation: ADP-Glo turns the ADP formed in a reaction into a luminescent signal.

A further experiment has as its target T1, JNK3 (Homo sapiens, UniProt P53779).
T1 construct: purchased DiscoverX Corp. (ScanMAX Kinase panel, commissioned)
As to the kind of experiment: JNK enzyme activity, Kinase HotSpot service (Reaction Biology Corporation). Format: biochemical. The settings on record: ATP concentration of 10 μM. The procedure: (§1) IC50 values of the compound of Example 7 for the enzymes were measured using the Kinase HotSpot service (Reaction Biology Corporation), and a test was performed under the same conditions at an ATP concentration of 10 μM. The concentration of the compound was measured at a 3-fold concentration gradient from the peak concentration of 10 mM.
(§2) All the experimental methods were performed as provided in the Kinase HotSpot Customer Protocol (http://www.reactionbiology.com//Kinase_Assay_Protocol).

For a further experiment, the target named is T2, JNK2 (Homo sapiens, UniProt P45984).
T2 construct: purchased DiscoverX Corp. (ScanMAX Kinase panel, commissioned)
The experiment is described as above. Format: biochemical. The settings on record: ATP concentration of 10 μM. The procedure: as §1, §2

For the next experiment, the target named is T3, JNK1 (Homo sapiens, UniProt P45983).
T3 construct: purchased DiscoverX Corp. (ScanMAX Kinase panel, commissioned)
The experiment is described as above. The format is biochemical. Particulars: ATP concentration of 10 μM. The procedure: as §1, §2

In the next experiment the target is T4, CAMKK2 (Homo sapiens, UniProt Q96RR4).
T4 construct: purchased DiscoverX Corp. ScanMAX Kinase panel
As to the kind of experiment: ScanMAX Kinase panel (DiscoverX). Format: binding. The settings on record: read-out: % Cont @ 1 μM. The procedure:
(§3) Further, to evaluate the inhibitory activity of the compound according to the present invention against more enzymes, an experiment was performed as follows. Specifically, the enzyme (kinase) selectivity of the compound of Example 64 selected from the Example compounds of the present invention was measured by commissioning DiscoverX Corp., and an experiment was performed using a panel for ScanMAX™ Kinase analysis. In this case, the concentration of a drug treated with the enzyme was set at 1 μM in DMSO, and the percent control (% control) were defined in the same manner as in the following Expression 1.
(§4) (Example compound−Positive control)/(Negative control−Positive control)×100 [Expression 1]
(§5) Wherein the positive control represents a compound having a percent control of 0%, and the negative control represents a compound having a percent control of 100% in DMSO. For the enzyme selectivity of the present invention, the compound was also judged to have activity against the corresponding enzyme when the percent control for each of the enzymes was <35% (i.e., less than 35%).

In a further experiment the target is T5, YSK4 (Homo sapiens, UniProt Q56UN5).
T5 construct: purchased DiscoverX Corp. (ScanMAX Kinase panel, commissioned)
Briefly: ScanMAX Kinase panel (DiscoverX). The settings on record: read-out: % Cont @ 1 μM. Format: binding. The procedure: as §3, §4, §5

Experiment [1] concerns the target T6, RSK2(Kin.Dom.1-N-terminal) (Homo sapiens, UniProt P51812).
T6 construct: RSK2(Kin.Dom.1-; purchased DiscoverX Corp. (ScanMAX Kinase panel, commissioned)
Briefly: ScanMAX Kinase panel (DiscoverX). Format: binding. The settings on record: read-out: % Cont @ 1 μM. The procedure:
as §3, §4, §5

The next experiment concerns the target T7, ULK3 (Homo sapiens, UniProt Q6PHR2).
T7 construct: purchased DiscoverX Corp. ScanMAX Kinase panel
Briefly: ScanMAX Kinase panel (DiscoverX). Format: binding. The procedure:
as §3, §4, §5

For a further experiment, the target named is T8, MEK4 (Homo sapiens, UniProt P45985).
T8 construct: purchased DiscoverX Corp. ScanMAX Kinase panel
As to the kind of experiment: ScanMAX Kinase panel (DiscoverX). Format: binding. The settings on record: read-out: % Cont @ 1 μM. The procedure: as §3, §4, §5

A further experiment addresses T9, CAMK2D (Homo sapiens, UniProt Q13557).
T9 construct: purchased DiscoverX Corp. ScanMAX Kinase panel
Briefly: ScanMAX Kinase panel (DiscoverX). Format: binding. The settings on record: read-out: % Cont @ 1 μM. The procedure:
as §3, §4, §5

The target of the next experiment is T10, CSNK1D (Homo sapiens, UniProt P48730).
T10 construct: purchased DiscoverX Corp. ScanMAX Kinase panel
Briefly: ScanMAX Kinase panel (DiscoverX). The format is binding. Particulars: read-out: % Cont @ 1 μM. The procedure: as §3, §4, §5

Another experiment addresses T11, KIT(V559D, V654A) (Homo sapiens, UniProt P10721, V559D/V654A).
T11 construct: purchased DiscoverX Corp. ScanMAX Kinase panel
Briefly: ScanMAX Kinase panel (DiscoverX). Format: binding. The settings on record: read-out: % Cont @ 1 μM. The procedure: as §3, §4, §5

In a further experiment the target is T12, SNARK (Homo sapiens, UniProt Q9H093).
T12 construct: purchased DiscoverX Corp. (ScanMAX Kinase panel, commissioned)
As to the kind of experiment: ScanMAX Kinase panel (DiscoverX). The format is binding. The procedure: as §3, §4, §5

For another experiment, the target named is T13, TRKB (Homo sapiens, UniProt Q16620).
T13 construct: purchased DiscoverX Corp. ScanMAX Kinase panel
Briefly: ScanMAX Kinase panel (DiscoverX). The format is binding. Particulars: read-out: % Cont @ 1 μM. The procedure: as §3, §4, §5

In another experiment the target is T14, AAK1 (Homo sapiens, UniProt Q2M2I8).
T14 construct: purchased DiscoverX Corp. ScanMAX Kinase panel
Briefly: ScanMAX Kinase panel (DiscoverX). The format is binding. The settings on record: read-out: % Cont @ 1 μM. The procedure:
as §3, §4, §5

A further experiment has as its target T15, PRKCE (Homo sapiens, UniProt Q02156).
T15 construct: purchased DiscoverX Corp. (ScanMAX Kinase panel, commissioned)
Briefly: ScanMAX Kinase panel (DiscoverX). The format is binding. The settings on record: read-out: % Cont @ 1 μM. The procedure:
as §3, §4, §5

In experiment [2] the target is T16, JAK2(JH1domain-catalytic) (Homo sapiens, UniProt O60674).
T16 construct: JAK2(JH1domain-; purchased DiscoverX Corp. (ScanMAX Kinase panel, commissioned)
Briefly: ScanMAX Kinase panel (DiscoverX). Format: binding. The procedure:
as §3, §4, §5

For another experiment, the target named is T17, SBK1 (Homo sapiens, UniProt Q52WX2).
T17 construct: purchased DiscoverX Corp. ScanMAX Kinase panel
As to the kind of experiment: ScanMAX Kinase panel (DiscoverX). Format: binding. Particulars: read-out: % Cont @ 1 μM. The procedure:
as §3, §4, §5

Another experiment has as its target T18, MAP3K2 (Homo sapiens, UniProt Q9Y2U5).
T18 construct: purchased DiscoverX Corp. ScanMAX Kinase panel
Briefly: ScanMAX Kinase panel (DiscoverX). The settings on record: read-out: % Cont @ 1 μM. Format: binding. The procedure: as §3, §4, §5

A further experiment has as its target T19, CAMKK1 (Homo sapiens, UniProt Q8N5S9).
T19 construct: purchased DiscoverX Corp. (ScanMAX Kinase panel, commissioned)
Briefly: ScanMAX Kinase panel (DiscoverX). The format is binding. The settings on record: read-out: % Cont @ 1 μM. The procedure:
as §3, §4, §5

T10 sequence (P48730 whole entry): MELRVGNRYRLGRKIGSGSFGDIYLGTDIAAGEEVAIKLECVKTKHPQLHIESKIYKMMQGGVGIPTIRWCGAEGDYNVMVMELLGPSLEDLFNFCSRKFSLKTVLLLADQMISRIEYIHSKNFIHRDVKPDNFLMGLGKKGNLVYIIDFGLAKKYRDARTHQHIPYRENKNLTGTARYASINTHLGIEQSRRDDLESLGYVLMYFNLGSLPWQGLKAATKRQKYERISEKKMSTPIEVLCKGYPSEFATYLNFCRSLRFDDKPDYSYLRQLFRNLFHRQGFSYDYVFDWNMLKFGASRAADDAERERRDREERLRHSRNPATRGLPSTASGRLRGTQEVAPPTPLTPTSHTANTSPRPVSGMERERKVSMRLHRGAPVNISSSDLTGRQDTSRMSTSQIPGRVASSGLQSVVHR
T8 sequence (P45985 whole entry): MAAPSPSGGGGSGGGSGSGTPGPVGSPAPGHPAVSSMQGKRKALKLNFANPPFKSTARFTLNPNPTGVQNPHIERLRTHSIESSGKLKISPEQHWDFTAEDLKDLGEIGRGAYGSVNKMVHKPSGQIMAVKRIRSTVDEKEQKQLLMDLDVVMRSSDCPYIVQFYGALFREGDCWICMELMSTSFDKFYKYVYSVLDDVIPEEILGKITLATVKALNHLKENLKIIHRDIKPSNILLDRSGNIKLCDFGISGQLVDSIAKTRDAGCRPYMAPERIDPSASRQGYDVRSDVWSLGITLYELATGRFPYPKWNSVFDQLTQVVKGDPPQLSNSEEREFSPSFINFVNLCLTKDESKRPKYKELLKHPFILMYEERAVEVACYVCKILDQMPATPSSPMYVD
T4 sequence (Q96RR4 whole entry): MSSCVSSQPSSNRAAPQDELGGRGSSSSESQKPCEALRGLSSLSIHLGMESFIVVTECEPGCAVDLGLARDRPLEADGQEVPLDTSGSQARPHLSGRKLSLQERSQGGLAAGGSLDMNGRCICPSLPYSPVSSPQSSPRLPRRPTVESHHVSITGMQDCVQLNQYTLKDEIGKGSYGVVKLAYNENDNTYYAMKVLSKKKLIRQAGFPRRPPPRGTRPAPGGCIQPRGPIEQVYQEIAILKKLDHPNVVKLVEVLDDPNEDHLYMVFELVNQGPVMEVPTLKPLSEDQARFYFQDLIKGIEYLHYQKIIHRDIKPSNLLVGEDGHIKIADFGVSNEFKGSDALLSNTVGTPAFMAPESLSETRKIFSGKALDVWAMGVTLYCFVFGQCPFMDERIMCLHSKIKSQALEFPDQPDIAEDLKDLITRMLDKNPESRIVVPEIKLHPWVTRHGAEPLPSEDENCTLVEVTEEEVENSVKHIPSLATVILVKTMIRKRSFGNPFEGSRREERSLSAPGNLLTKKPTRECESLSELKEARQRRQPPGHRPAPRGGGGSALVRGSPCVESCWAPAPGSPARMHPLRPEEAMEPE
T5 sequence (Q56UN5 whole entry): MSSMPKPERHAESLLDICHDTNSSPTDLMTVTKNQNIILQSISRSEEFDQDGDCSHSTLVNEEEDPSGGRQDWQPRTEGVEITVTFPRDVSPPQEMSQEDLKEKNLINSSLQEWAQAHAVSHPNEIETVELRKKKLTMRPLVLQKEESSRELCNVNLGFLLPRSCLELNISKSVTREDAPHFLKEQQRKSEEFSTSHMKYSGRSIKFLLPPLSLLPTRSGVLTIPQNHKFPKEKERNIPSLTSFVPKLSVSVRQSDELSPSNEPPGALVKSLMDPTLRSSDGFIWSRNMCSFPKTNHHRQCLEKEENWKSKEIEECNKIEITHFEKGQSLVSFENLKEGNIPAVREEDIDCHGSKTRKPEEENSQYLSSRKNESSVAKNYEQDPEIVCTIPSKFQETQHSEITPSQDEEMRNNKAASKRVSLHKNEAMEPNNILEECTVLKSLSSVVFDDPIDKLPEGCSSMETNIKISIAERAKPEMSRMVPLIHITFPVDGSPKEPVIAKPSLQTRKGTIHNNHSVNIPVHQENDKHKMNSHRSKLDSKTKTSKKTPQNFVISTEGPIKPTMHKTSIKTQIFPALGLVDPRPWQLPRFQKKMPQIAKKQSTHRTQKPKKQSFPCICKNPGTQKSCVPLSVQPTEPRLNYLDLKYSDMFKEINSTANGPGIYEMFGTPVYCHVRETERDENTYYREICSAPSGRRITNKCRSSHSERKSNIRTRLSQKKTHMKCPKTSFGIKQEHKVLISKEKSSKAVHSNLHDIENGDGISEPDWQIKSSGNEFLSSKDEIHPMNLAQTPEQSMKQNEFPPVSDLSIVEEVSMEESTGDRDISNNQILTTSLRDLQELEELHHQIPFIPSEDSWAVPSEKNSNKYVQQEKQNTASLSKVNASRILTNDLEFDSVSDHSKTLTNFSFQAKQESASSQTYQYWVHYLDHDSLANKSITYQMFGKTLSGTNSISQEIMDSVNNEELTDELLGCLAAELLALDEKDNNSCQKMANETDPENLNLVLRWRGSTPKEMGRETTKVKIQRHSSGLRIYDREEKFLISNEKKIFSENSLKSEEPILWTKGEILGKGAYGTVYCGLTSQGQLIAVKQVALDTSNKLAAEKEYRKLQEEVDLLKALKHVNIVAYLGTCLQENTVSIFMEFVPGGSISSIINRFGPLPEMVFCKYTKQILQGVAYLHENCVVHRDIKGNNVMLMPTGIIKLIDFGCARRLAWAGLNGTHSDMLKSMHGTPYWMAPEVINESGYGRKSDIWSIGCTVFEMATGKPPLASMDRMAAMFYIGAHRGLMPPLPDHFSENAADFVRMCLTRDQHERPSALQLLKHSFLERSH
T11 sequence (P10721 26-976 V559D/V654A): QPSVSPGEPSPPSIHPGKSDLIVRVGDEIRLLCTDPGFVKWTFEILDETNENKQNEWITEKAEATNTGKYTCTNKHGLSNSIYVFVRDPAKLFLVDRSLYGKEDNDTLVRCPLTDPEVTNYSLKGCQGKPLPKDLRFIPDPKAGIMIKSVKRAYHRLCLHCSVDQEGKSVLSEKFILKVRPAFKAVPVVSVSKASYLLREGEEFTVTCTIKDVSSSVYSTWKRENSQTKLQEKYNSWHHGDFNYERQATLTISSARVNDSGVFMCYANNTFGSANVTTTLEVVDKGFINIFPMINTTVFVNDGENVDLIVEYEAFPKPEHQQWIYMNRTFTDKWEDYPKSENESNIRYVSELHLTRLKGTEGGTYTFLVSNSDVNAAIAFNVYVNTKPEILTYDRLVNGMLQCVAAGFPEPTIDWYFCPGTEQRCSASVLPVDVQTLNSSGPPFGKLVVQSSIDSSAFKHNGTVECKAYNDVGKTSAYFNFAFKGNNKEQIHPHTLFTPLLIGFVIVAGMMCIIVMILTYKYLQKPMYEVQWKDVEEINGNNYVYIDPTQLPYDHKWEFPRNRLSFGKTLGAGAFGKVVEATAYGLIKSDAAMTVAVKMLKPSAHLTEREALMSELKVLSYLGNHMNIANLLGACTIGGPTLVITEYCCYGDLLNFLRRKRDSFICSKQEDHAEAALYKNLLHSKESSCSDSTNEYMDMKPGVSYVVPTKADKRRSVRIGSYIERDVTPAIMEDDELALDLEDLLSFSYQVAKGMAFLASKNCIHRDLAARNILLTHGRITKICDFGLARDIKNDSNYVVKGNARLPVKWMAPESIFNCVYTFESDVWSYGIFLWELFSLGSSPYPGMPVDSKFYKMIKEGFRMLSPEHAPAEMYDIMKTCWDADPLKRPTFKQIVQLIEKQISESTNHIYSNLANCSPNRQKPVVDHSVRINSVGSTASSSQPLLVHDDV
T1 sequence (P53779 whole entry): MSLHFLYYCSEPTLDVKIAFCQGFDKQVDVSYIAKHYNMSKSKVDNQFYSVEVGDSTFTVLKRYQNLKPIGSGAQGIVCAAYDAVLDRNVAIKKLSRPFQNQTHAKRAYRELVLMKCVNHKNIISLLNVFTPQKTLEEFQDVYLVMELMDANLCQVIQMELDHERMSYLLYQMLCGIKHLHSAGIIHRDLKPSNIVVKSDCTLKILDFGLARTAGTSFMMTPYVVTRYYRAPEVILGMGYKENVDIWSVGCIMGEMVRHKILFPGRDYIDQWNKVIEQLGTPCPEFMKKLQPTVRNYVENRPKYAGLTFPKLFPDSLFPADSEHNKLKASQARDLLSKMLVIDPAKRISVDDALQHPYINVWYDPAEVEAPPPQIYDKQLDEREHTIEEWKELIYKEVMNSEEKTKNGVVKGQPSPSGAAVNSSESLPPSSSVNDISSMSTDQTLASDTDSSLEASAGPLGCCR
T16 sequence (O60674 849-1124 limits assumed): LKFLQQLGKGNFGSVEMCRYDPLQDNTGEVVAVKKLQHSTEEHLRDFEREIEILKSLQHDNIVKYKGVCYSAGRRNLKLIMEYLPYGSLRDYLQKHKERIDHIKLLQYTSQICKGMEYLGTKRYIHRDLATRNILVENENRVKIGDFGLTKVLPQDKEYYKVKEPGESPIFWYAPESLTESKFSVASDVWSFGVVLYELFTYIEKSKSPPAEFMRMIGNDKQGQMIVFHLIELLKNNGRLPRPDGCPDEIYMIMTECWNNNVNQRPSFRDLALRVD
T12 sequence (Q9H093 whole entry): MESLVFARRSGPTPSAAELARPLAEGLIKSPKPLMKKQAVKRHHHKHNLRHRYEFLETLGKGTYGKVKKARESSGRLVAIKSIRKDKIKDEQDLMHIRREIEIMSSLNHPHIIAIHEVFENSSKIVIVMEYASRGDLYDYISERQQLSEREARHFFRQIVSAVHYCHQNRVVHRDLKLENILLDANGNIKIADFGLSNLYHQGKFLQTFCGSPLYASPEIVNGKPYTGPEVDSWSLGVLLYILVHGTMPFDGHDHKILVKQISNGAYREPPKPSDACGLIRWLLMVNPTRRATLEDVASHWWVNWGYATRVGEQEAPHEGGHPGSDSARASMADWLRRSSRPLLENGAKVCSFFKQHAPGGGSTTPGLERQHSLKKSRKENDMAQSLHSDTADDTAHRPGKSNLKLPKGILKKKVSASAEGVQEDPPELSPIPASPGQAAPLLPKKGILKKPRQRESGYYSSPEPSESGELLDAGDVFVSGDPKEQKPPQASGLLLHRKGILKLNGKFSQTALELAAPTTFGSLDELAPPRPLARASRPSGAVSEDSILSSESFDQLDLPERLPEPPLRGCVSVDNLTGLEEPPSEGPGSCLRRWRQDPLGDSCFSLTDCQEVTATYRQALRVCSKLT

As usually defined, the IC50 is the concentration that inhibits the measured activity by half. A low value points to inhibition by little substance. On to `COc1cc(-c2ccnn2C)ccc1Nc1nc(NC2CCCCC2)c2c(C#N)c[nH]c2n1` [Example 7, 4-(cyclohexylamino)-2-((2-methoxy-4-(1-methyl-1H-pyrazol-5-yl)phenyl)amino)-7H-pyrrolo[2,3-d] pyrimidine-5-carbonitrile], for which the IC50 against LRRK2 was under 1000 nM; against JNK3, under 100 nM; against JNK2, under 100 nM; at JNK1, under 100 nM.
As for `COc1cc(N2CCCC2=O)ccc1Nc1cc(NC2CCCCC2)c2c(C#N)c[nH]c2n1` [Example 64, 4-(cyclohexylamino)-6-((2-methoxy-4-(2-oxopyrrolidin-1-yl)phenyl)amino)-1H-pyrrolo[2,3-b] pyridine-3-carbonitrile], the remaining binding at 1 µM at CAMKK2 came to 2.2%; in [1] it was 1.9%; on MEK4 it was 27%; at KIT(V559D, V654A), 14%; on TRKB it was 3.9%; at AAK1, 4.4%. Besides, the remaining binding at 1 µM on SBK1 was 5.7%; on MAP3K2 it was 13%; at CAMKK1 it was 1.6%. Besides, the percent of control binding at 1 µM stood at 0.3% at YSK4 and 1.4% on PRKCE. Besides, the “% Cont @ 1 μM” value at ULK3 is 2.6%; at SNARK, 0%; in experiment [2], 0%. Moreover, the percent of control at 1 µM at CAMK2D came out at 12%; at CSNK1D it was 19%.
